From patent EP0465096A1, “Plasma cholesterol level lowering composition” (MERCK & CO. INC., priority 1990, dated 1992)
Marks after values point to notes of the source that are not given here.

Test system: dogs
Assay: Plasma cholesterol lowering in dogs, oral bolus (rapid release) vs 24 h gastric infusion (Example 1)
Type: in vivo
Conditions: ammonium salt, 10 mg/kg/day for 28 days, vs pre-dosing level
Experimental: 7-[1,2,6,7,8,8a(R)-hexahydro-2(S),6(R)-dimethyl-8(S)-(2,2-dimethylbutyryloxy)-naphthalenyl-1(S)]-3(R),5(R)-dihydroxyheptanoic acid, an HMG-CoA reductase inhibitor which is the ring opened dihydroxy acid of simvastatin, was administered to dogs as the ammonium salt as either an oral bolus dose (rapid release) or as a continuous gastric infusion over 24 hours (simulated controlled release). In both cases, each dog received a dose of 10 mg/kg/day for 28 days of the above named HMG-CoA reductase inhibitor. Plasma cholesterol was determined throughout the entire study and drug-treatment levels compared to control cholesterol levels (pre-dosing) for each dog. Circulating plasma levels of the above named HMG-CoA reductase inhibitor were determined on Day 16 of each drug dosing period.

**Q.** Which “Mean Maximum Reduction In Plasma Cholesterol” value (continuous gastric infusion over 24 hours (simulated controlled release), mean ± SD, n = 4 dogs) does the source give for `CCC(C)(C)C(=O)O[C@H]1C[C@@H](C)C=C2C=C[C@H](C)[C@H](CC[C@@H](O)C[C@@H](O)CC(=O)O)[C@H]21` [7-[1,2,6,7,8,8a(R)-hexahydro-2(S),6(R)-dimethyl-8(S)-(2,2-dimethylbutyryloxy)-naphthalenyl-1(S)]-3(R),5(R)-dihydroxyheptanoic acid] here?
**A.** The value was 60 ± 4.0^b percent.

**Q.** What about the “Mean Maximum Reduction In Plasma Cholesterol” value (oral bolus dose (rapid release), n = 1 dog) of the same compound?
**A.** The value was 31^a percent.
